# Earlier results, collected in patent US10537125B2, “Chlorine dioxide gas releasing package label insert for enhancing microbial safety of food” (priority 2016, dated 2020).
# Tests used:
# Salmonella [1] = details: constant ClO2 0.5 mg/L air for 15, 30, and 60 min
# [2] = at 20° C. and 760 mm Hg
# Salmonella [3] = details: one-time application, treatment time 6 min to 120 min
compound,measurement,setting,value
"[O][Cl+][O-] [ClO2, chlorine dioxide]",reduction of Salmonella on mung bean sprouts,Salmonella [1],up to 4 log CFU Salmonella/g
same,solubility in water,[2],about 70 g/L
same,Salmonella inactivation range reported by others,Salmonella [3],1.54-5.15 log
